The record followed here is PubChem BioAssay (NCI).

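Method: 48-hour compound exposure of cells in 96-well plates, five concentrations, linear interpolation of endpoints. At the GI50, growth is halved. TGI denotes the concentration required for complete inhibition of growth.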

Test systems include A498 renal; CAKI-1 renal; HCT-15 colon; K-562 leukemia; MOLT-4 leukemia; SF-268 CNS; SK-MEL-5 melanoma; U251 CNS; MDA-MB-435; T-47D breast.
What all share (experiment): growth of human tumour cells (NCI), 48 h

For `C=CC[C@@]1(C#N)C[C@H](C[C@]2(C#N)C[C@H](CCl)OC(C)(C)O2)OC(C)(C)O1`, the TGI in the test with A498 renal, in the test with CAKI-1 renal, in the test with HCT-15 colon, in the test with K-562 leukemia, in the test on MOLT-4 leukemia and in the test on SF-268 CNS was above 100 µM in each case. The TGI in the test on SK-MEL-5 melanoma and in the test with U251 CNS was above 100 µM in each case.

For `CC1=NN(C(=O)c2ccccc2)C(=O)C1N=Nc1ccccc1C(=O)O` (stereo not given), the TGI in the test with A498 renal is above 100 µM; in the test on CAKI-1 renal, above 100 µM; with HCT-15 colon, above 100 µM; in the test with K-562 leukemia, above 29.4 µM; in the test with MOLT-4 leukemia it was above 100 µM; with SF-268 CNS it was above 100 µM. Further, the TGI with SK-MEL-5 melanoma and with U251 CNS was above 100 µM in each case.

For `O=C(O)c1ccc(/C=N\N(CCO)C2=NCCN2)cc1`, the TGI in the test with HCT-15 colon, in the test with K-562 leukemia, in the test on MDA-MB-435, with MOLT-4 leukemia, with SF-268 CNS and in the test on SK-MEL-5 melanoma was above 100 µM in each case. Moreover, the TGI with T-47D breast and in the test on U251 CNS was above 100 µM each time.

For the compound `CN1CCN(c2ccc3nc(-c4ccc5nc(-c6ccc(N(C)CCCl)cc6)[nH]c5c4)[nH]c3c2)CC1`, the TGI came out at 6.74 µM with A498 renal; 17.1 µM in the test on CAKI-1 renal; 26.1 µM in the test on HCT-15 colon; 1.16 µM in the test on K-562 leukemia; 0.281 µM with MDA-MB-435; 0.357 µM in the test on MOLT-4 leukemia. Also, the figures for the TGI in the test on SF-268 CNS, in the test with SK-MEL-5 melanoma and with U251 CNS were 11 µM, 0.517 µM and 1.09 µM, respectively.

For the compound `CCOC(=O)CC(=Nc1cc(C)on1)N(CC)CC`, the TGI in the test on A498 renal, in the test with CAKI-1 renal, in the test with HCT-15 colon, in the test on K-562 leukemia, with MOLT-4 leukemia and with SF-268 CNS was above 100 µM in each case. In addition, the TGI in the test on SK-MEL-5 melanoma and with U251 CNS was above 100 µM in each case.

In the case of `Cc1cc(O)c(/C=N/C(=O)NN)c(=O)o1`, the TGI with CAKI-1 renal, with HCT-15 colon, in the test with MDA-MB-435, in the test with MOLT-4 leukemia, in the test on SF-268 CNS and in the test with SK-MEL-5 melanoma was above 100 µM in each case. The TGI in the test on U251 CNS is above 100 µM.

For the compound `COc1ccc2c(c1)Cc1c-2[nH]c2cc3c(cc2c1=O)OCO3`, the TGI was above 100 µM in the test on CAKI-1 renal; above 100 µM in the test on HCT-15 colon; above 100 µM with K-562 leukemia; 41.9 µM with MOLT-4 leukemia; above 100 µM in the test with SF-268 CNS; 19.4 µM with SK-MEL-5 melanoma. The compound further had a TGI with U251 CNS of 23.5 µM.

Regarding `COC(=O)C[C@](O)(CCC(C)(C)O)C(=O)O[C@@H]1C(OC)=C[C@]23CCCN2CCc2cc4c(cc2[C@H]13)OCO4`, the TGI was 0.26 µM with A498 renal; 1.64 µM with CAKI-1 renal; 2.07 µM in the test on HCT-15 colon; above 100 µM in the test with K-562 leukemia; above 100 µM with MOLT-4 leukemia; 0.496 µM in the test on SF-268 CNS. Besides, the TGI in the test on SK-MEL-5 melanoma is 0.202 µM; with U251 CNS, 0.379 µM.

For `C[n+]1c(-c2ccc(/C=N/Nc3n[nH]c(=S)n3N/N=C/c3ccc(-c4cn5ccccc5[n+]4C)cc3)cc2)cn2ccccc21`, the TGI in the test on HCT-15 colon, in the test with K-562 leukemia, with MDA-MB-435, in the test with MOLT-4 leukemia, in the test on SF-268 CNS and with SK-MEL-5 melanoma was above 100 µM throughout. Besides, the TGI in the test on T-47D breast and in the test with U251 CNS was above 100 µM throughout.

Turning to `CN(C)C(=S)/N=c1\ssc(=S)n1Cc1ccccn1`, the TGI was above 81.4 µM in the test on A498 renal; above 100 µM with CAKI-1 renal; above 100 µM with HCT-15 colon; above 100 µM in the test on MOLT-4 leukemia; above 100 µM in the test on SF-268 CNS; above 54.4 µM in the test on SK-MEL-5 melanoma. The compound also returned a TGI in the test with U251 CNS above 100 µM.

As for `CCOC(=O)C1CCn2c(nc3c(=O)n(C)c(=O)n(C)c32)S1` (stereo not given), the TGI in the test with CAKI-1 renal, in the test on HCT-15 colon, with K-562 leukemia, in the test with MOLT-4 leukemia, with SF-268 CNS and in the test on SK-MEL-5 melanoma was above 100 µM throughout. This compound also gave a TGI in the test with U251 CNS above 100 µM.

For the compound `Cc1ccc(C(=O)NC(C)C)cc1N=NN(C)C`, the TGI in the test with CAKI-1 renal, with HCT-15 colon, with SF-268 CNS, in the test with SK-MEL-5 melanoma and in the test with U251 CNS was above 100 µM in each case.

Turning to `FC(F)(F)c1nc2cc(SSc3cc4nc(C(F)(F)F)[nH]c4cc3Cl)c(Cl)cc2[nH]1`, the TGI in the test on A498 renal, with CAKI-1 renal, in the test with HCT-15 colon, in the test on K-562 leukemia, in the test on MDA-MB-435 and in the test with MOLT-4 leukemia was above 100 µM throughout. Besides, the TGI in the test on SF-268 CNS, with SK-MEL-5 melanoma and in the test with U251 CNS was above 100 µM throughout.

`Cc1cc(C)c(N)c(C)c1N`: the TGI in the test with A498 renal, in the test on HCT-15 colon, in the test on K-562 leukemia, in the test on MOLT-4 leukemia, in the test on SF-268 CNS and in the test on SK-MEL-5 melanoma was above 100 µM each time. Besides, the TGI with U251 CNS was above 100 µM.

`O=C(Cc1ccccc1)NN1C(=O)C(Cl)C1c1ccccc1` (stereo not given): the TGI in the test with CAKI-1 renal is above 100 µM; in the test on HCT-15 colon it was above 100 µM; with K-562 leukemia, above 100 µM; in the test with MOLT-4 leukemia it was 81.8 µM; in the test with SF-268 CNS, above 100 µM; in the test with SK-MEL-5 melanoma, above 100 µM. The same compound came in with a TGI in the test on U251 CNS above 100 µM.

In the case of `CC(=O)C1C(=O)C(=O)N(c2ccc([N+](=O)[O-])cc2Cl)C1=O` (stereo not given), the TGI in the test on CAKI-1 renal, with HCT-15 colon, with MDA-MB-435, in the test on MOLT-4 leukemia, in the test on SF-268 CNS and in the test with SK-MEL-5 melanoma was above 100 µM in each case. In the test with U251 CNS, this compound came in with a TGI above 100 µM.

Consider `Oc1cccc2nc3cc(CN4CCOCC4)c(CN4CCOCC4)cc3nc12`, for which the TGI with A498 renal, in the test with CAKI-1 renal, with HCT-15 colon, in the test on K-562 leukemia, with MOLT-4 leukemia and in the test with SF-268 CNS was above 100 µM in each case. The TGI was 55.3 µM with SK-MEL-5 melanoma and above 100 µM with U251 CNS.

For `CC[S+](C)c1ccc(-c2c3nc(c(-c4ccc([S+](C)CC)cc4)c4ccc([nH]4)c(-c4ccc([S+](C)CC)cc4)c4nc(c(-c5ccc([S+](C)CC)cc5)c5ccc2[nH]5)C=C4)C=C3)cc1` (stereo not given), the TGI was above 100 µM in the test on A498 renal; above 100 µM with CAKI-1 renal; above 100 µM in the test on HCT-15 colon; above 100 µM with K-562 leukemia; 67.1 µM with MOLT-4 leukemia; above 100 µM in the test with SF-268 CNS. The TGI in the test on SK-MEL-5 melanoma and with U251 CNS was above 100 µM in each case.

`O=C(/C=C\c1ccc(OCCCCCC[P+](c2ccccc2)(c2ccccc2)c2ccccc2)cc1)c1ccc2c(c1)OCCO2`: the GI50 in the test on A498 renal is 0.376 µM; in the test with CAKI-1 renal, 1.84 µM; with K-562 leukemia it was 0.494 µM; in the test with MDA-MB-435, 0.985 µM; in the test on MOLT-4 leukemia it was 2.32 µM; with SF-268 CNS, 0.585 µM. In addition, the TGI in the test with A498 renal was 1.95 µM; in the test with CAKI-1 renal, 3.88 µM; in the test on K-562 leukemia, above 100 µM; in the test on MDA-MB-435 it was 2.21 µM; in the test with MOLT-4 leukemia, 8.57 µM; in the test on SF-268 CNS, 3.19 µM.

Consider `CCc1c(-c2coc(CC/C(C)=C/c3ccccc3)n2)oc(OC)c(C)c1=O`, for which the TGI is above 100 µM in the test on A498 renal; above 100 µM in the test with CAKI-1 renal; above 55.5 µM with HCT-15 colon; above 100 µM in the test on K-562 leukemia; above 100 µM in the test with MOLT-4 leukemia; above 100 µM with SF-268 CNS. Besides, the values for the TGI with SK-MEL-5 melanoma and with U251 CNS were above 46.9 µM and above 53.9 µM, respectively.

For `CC[C@@]1(O)C(=O)OCc2c1cc1n(c2=O)Cc2c-1nc1ccccc1c2/C=N\NC(=O)C(N)=O`, the TGI in the test with A498 renal was 9.81 µM; with CAKI-1 renal, 17.5 µM; in the test on HCT-15 colon, above 100 µM; in the test on K-562 leukemia, above 100 µM; in the test on MDA-MB-435, above 100 µM; in the test on MOLT-4 leukemia, above 23.7 µM. Moreover, the TGI is above 100 µM with SF-268 CNS, 2.96 µM with SK-MEL-5 melanoma and 13.6 µM in the test with U251 CNS.

In the case of `CCOC(=O)CCc1c(C)c2c(O)cc(O)cc2oc1=O`, the TGI with A498 renal, in the test with CAKI-1 renal, in the test with HCT-15 colon, in the test with K-562 leukemia, in the test on MOLT-4 leukemia and in the test with SF-268 CNS was above 100 µM throughout. The TGI in the test with SK-MEL-5 melanoma and with U251 CNS was above 100 µM in each case.

Turning to `[N-]=[N+]=NC(c1cn(C2CC(O)C(CO)O2)c(=O)[nH]c1=O)C(I)I` (stereo not given), the TGI in the test on A498 renal, in the test on CAKI-1 renal, with K-562 leukemia, in the test on MOLT-4 leukemia, in the test with SF-268 CNS and with SK-MEL-5 melanoma was above 100 µM each time. In the test on U251 CNS, this compound showed a TGI above 100 µM.
